Laboratory results taken from patent publication US20240208954A1, “OXADIAZOLE COMPOUND, PREPARATION METHOD THEREFOR, PHARMACEUTICAL COMPOSITION AND USE THEREOF” (SHANGHAI INSTITUTE OF MATERIA MEDICA, CHINESE ACADEMY OF …, priority 2020, published 2024).
Several values for one entry are separate records, joined by “and”; a condition that tells them apart may be missing. Equal values may be shown once. Entries after “also recorded” stand apart in the source; their conditions may differ. Read-outs that look alike come from different tables or passages of the source.

Key:
[1] = Preliminary evaluation of pharmacokinetics in Beagle dogs; assay type: in vivo; conditions: for MRT inf: read-out: MRT0-∞; for Vd: read-out: Vss; for concentration at 0.083 h / concentration at 0.25 h / concentration at 0.5 h / concentration at 1 h / concentration at 2 h / concentration at 3 h / concentration at 4 h / concentration at 6 h / concentration at 8 h: read-out: Plasma drug concentration in Beagle dogs
[2] = test system: CCI4-induced liver fibrosis model; assay: Pharmacological activity test in carbon tetrachloride induced liver fibrosis model; assay type: in vivo, C57BL/6 mice
Procedure: Male C57BL/6 mice were injected intraperitoneally with 5% CCI4(dissolved in corn oil) at 5 mL/kg twice a week to induce liver fibrosis model. Three weeks after modeling, mice were randomly divided into five groups: model control group (Model, n=12), positive compound FTY720 group (2 mg/kg, n=9), positive compound OCA group (30 mg/kg, n=10), low dose group (3 mg/kg), high dose group (10 mg/kg), FTY720 was administered by intraperitoneal injection and the rest of the groups were administered by oral gavage, once a day. After 5 weeks of administration, the mice were sacrificed by dislocation after blood was taken via the posterior ophthalmic plexus, liver and spleen were taken and weighed. Part of the liver was fixed in 4% paraformaldehyde, and part of the liver and serum were stored at −80° C. 10 mice from the same litter were injected intraperitoneally with the same dose of corn oil throughout the experiment as a systemic control.

[3] = Beagle dogs, intragastric 3 mg/kg, individual animals 4-6, listed as DC411151
[4] = Beagle dogs, intravenous 0.5 mg/kg, individual animals 1-3, listed as DC411151, 0.5 mg/kg
[5] = Beagle, dog, plasma, po, 3 mg/kg, Beagle dogs, intragastric 3 mg/kg, individual animals 4-6
[6] = Beagle, dog, plasma, po, 3 mg/kg, Beagle dogs, intragastric 3 mg/kg, mean
[7] = beagle, dog, plasma, iv, 0.5 mg/kg, Beagle dogs, intravenous 0.5 mg/kg, individual animals 1-3
[8] = beagle, dog, plasma, iv, 0.5 mg/kg, Beagle dogs, intravenous 0.5 mg/kg, mean
[9] = dog, in vivo, Beagle dogs, intravenous 0.5 mg/kg, mean

With `CC(C)Oc1ccc(-c2nc(-c3ccc(CN4CC(C(=O)O)C4)c4ccccc34)no2)cc1C#N.Cl` [Compound A1, 1-((4-(5-(3-cyano-4-isopropoxyphenyl)-1,2,4-oxadiazol-3-yl)naphthalen-1-yl)methyl) azetidine-3-carboxylic acid hydrochloric acid] the AUC0-t [1, 3] was 1170 ng·h/mL and 1550 ng·h/mL and 757 ng·h/mL, the “AUC0-∞” value [1, 3] was 1200 ng·h/mL and 1570 ng·h/mL and 765 ng·h/mL and the Cmax [1, 3] was 318 ng/mL and 539 ng/mL and 242 ng/mL. For the same molecule, the “MRT0-∞” value [1, 3] was 2.58 h and 2.44 h, the Tmax [1, 3] was 1 h and 0.25 h and 2 h and the t1/2 [1, 3] was 1.32 h and 1.06 h. The “plasma clearance as share of dog liver blood flow (about 31 mL/min/kg)” value ([1]; Beagle dogs, intravenous 0.5 mg/kg) was 75.2%, the AUC0-t [1, 4] was 317 ng·h/mL and 382 ng·h/mL and the “AUC0-∞” value [1, 4] was 319 ng·h/mL and 382 ng·h/mL. For the same molecule, the CL [1, 4] was 26.1 mL/min/kg and 21.8 mL/min/kg, the “MRT0-∞” value [1, 4] was 0.892 h and 0.952 h and the Vss [1, 4] was 1.40 L/kg and 1.24 L/kg. For the same molecule, the t1/2 [1, 4] was 1.05 h and 0.905 h, the half-life [1, 5] was 1.3 h and the MRT inf [1, 5] was 2.93 h. It also gave an AUC(0-inf) [1, 6] of 1180 ng·h/mL, a half-life [1, 6] of 1.23 h and an MRT inf [1, 6] of 2.65 h. It also gave a Tmax ([1]; Beagle, dog, plasma, po, 3 mg/kg, Beagle dogs, intragastric 3 mg/kg, mean, read-out: Tmax) of 1.08 h, an AUC(0-inf) [1, 7] of 379 ng·h/mL and a clearance [1, 7] of 22 mL/min/kg. It also gave a half-life [1, 7] of 0.997 h, an AUC0-t ([1]; beagle, dog, plasma, iv, 0.5 mg/kg, Beagle dogs, intravenous 0.5 mg/kg, individual animals 1-3, read-out: AUC0-t) of 375 ng·h/mL and an MRT inf [1, 7] of 0.91 h. It also gave a Vd [1, 7] of 1.2 L/kg, an AUC(0-inf) [1, 8] of 360 ng·h/mL and an AUC0-t ([1]; beagle, dog, plasma, iv, 0.5 mg/kg, Beagle dogs, intravenous 0.5 mg/kg, mean, read-out: AUC0-t) of 358 ng·h/mL. For the same molecule, the MRT inf [1, 8] was 0.918 h, the concentration at 0.083 h ([1]; beagle, dog, plasma, iv, 0.5 mg/kg, intravenous 0.5 mg/kg, 0.083 h, individual animals 1-3) was 604 ng/mL and the concentration at 0.083 h ([1]; beagle, dog, plasma, iv, 0.5 mg/kg, intravenous 0.5 mg/kg, 0.083 h, mean) was 565 ng/mL. It also gave a concentration at 0.25 h ([1]; beagle, dog, plasma, iv, 0.5 mg/kg, intravenous 0.5 mg/kg, 0.25 h, individual animals 1-3) of 237 ng/mL, a concentration at 0.25 h ([1]; beagle, dog, plasma, iv, 0.5 mg/kg, intravenous 0.5 mg/kg, 0.25 h, mean) of 265 ng/mL and a concentration at 0.5 h ([1]; beagle, dog, plasma, iv, 0.5 mg/kg, intravenous 0.5 mg/kg, 0.5 h, individual animals 1-3) of 190 ng/mL. For the same molecule, the concentration at 0.5 h ([1]; beagle, dog, plasma, iv, 0.5 mg/kg, intravenous 0.5 mg/kg, 0.5 h, mean) was 168 ng/mL, the concentration at 1 h ([1]; beagle, dog, plasma, iv, 0.5 mg/kg, intravenous 0.5 mg/kg, 1 h, individual animals 1-3) was 98.8 ng/mL and the concentration at 1 h ([1]; beagle, dog, plasma, iv, 0.5 mg/kg, intravenous 0.5 mg/kg, 1 h, mean) was 90.9 ng/mL. For the same molecule, the concentration at 2 h ([1]; beagle, dog, plasma, iv, 0.5 mg/kg, intravenous 0.5 mg/kg, 2 h, individual animals 1-3) was 27.5 ng/mL, the concentration at 2 h ([1]; beagle, dog, plasma, iv, 0.5 mg/kg, intravenous 0.5 mg/kg, 2 h, mean) was 30.2 ng/mL and the concentration at 3 h ([1]; beagle, dog, plasma, iv, 0.5 mg/kg, intravenous 0.5 mg/kg, 3 h, individual animals 1-3) was 20.4 ng/mL. The concentration at 3 h ([1]; beagle, dog, plasma, iv, 0.5 mg/kg, intravenous 0.5 mg/kg, 3 h, mean) was 17.7 ng/mL, the concentration at 4 h ([1]; beagle, dog, plasma, iv, 0.5 mg/kg, intravenous 0.5 mg/kg, 4 h, individual animals 1-3) was 9.68 ng/mL and the concentration at 4 h ([1]; beagle, dog, plasma, iv, 0.5 mg/kg, intravenous 0.5 mg/kg, 4 h, mean) was 9.39 ng/mL. For the same molecule, the concentration at 6 h ([1]; beagle, dog, plasma, iv, 0.5 mg/kg, intravenous 0.5 mg/kg, 6 h, individual animals 1-3) was 2.51 ng/mL, the concentration at 6 h ([1]; beagle, dog, plasma, iv, 0.5 mg/kg, intravenous 0.5 mg/kg, 6 h, mean) was 2.21 ng/mL and the concentration at 8 h ([1]; beagle, dog, plasma, iv, 0.5 mg/kg, intravenous 0.5 mg/kg, 8 h, mean) was 0.773 ng/mL. It also gave a concentration at 0.25 h ([1]; beagle, dog, plasma, oral, 3 mg/kg, intragastric 3 mg/kg, 0.25 h, mean) of 215 ng/mL, a concentration at 0.5 h ([1]; beagle, dog, plasma, oral, 3 mg/kg, intragastric 3 mg/kg, 0.5 h, mean) of 262 ng/mL and a concentration at 1 h ([1]; beagle, dog, plasma, oral, 3 mg/kg, intragastric 3 mg/kg, 1 h, individual animals 4-6) of 333 ng/mL. For the same molecule, the concentration at 1 h ([1]; beagle, dog, plasma, oral, 3 mg/kg, intragastric 3 mg/kg, 1 h, mean) was 281 ng/mL, the concentration at 2 h ([1]; beagle, dog, plasma, oral, 3 mg/kg, intragastric 3 mg/kg, 2 h, individual animals 4-6) was 365 ng/mL and the concentration at 2 h ([1]; beagle, dog, plasma, oral, 3 mg/kg, intragastric 3 mg/kg, 2 h, mean) was 291 ng/mL. It also gave a concentration at 3 h ([1]; beagle, dog, plasma, oral, 3 mg/kg, intragastric 3 mg/kg, 3 h, individual animals 4-6) of 212 ng/mL, a concentration at 3 h ([1]; beagle, dog, plasma, oral, 3 mg/kg, intragastric 3 mg/kg, 3 h, mean) of 208 ng/mL and a concentration at 4 h ([1]; beagle, dog, plasma, oral, 3 mg/kg, intragastric 3 mg/kg, 4 h, mean) of 111 ng/mL. The concentration at 6 h ([1]; beagle, dog, plasma, oral, 3 mg/kg, intragastric 3 mg/kg, 6 h, mean) was 59.4 ng/mL, the concentration at 8 h ([1]; beagle, dog, plasma, oral, 3 mg/kg, intragastric 3 mg/kg, 8 h, mean) was 10.8 ng/mL and the Tmax ([1]; beagle, dog, plasma, po, 3 mg/kg, Beagle dogs, 3 mg/kg by gavage, range over animals, read-out: peak time Tmax) was 0.25 to 2 h. It also gave an AUC0-t ([1]; dog, in vivo, po, Beagle dogs, intragastric 3 mg/kg, mean, read-out: AUC0-t) of 1160 ng·h/mL, a Cmax ([1]; dog, in vivo, po, Beagle dogs, intragastric 3 mg/kg, mean, read-out: Cmax) of 366 ng/mL and a clearance [1, 9] of 23.3 mL/min/kg. The half-life [1, 9] was 0.984 h, the Vd [1, 9] was 1.28 L/kg and the bioavailability ([1]; dog, plasma, oral, Beagle dogs, 3 mg/kg by gavage vs 0.5 mg/kg intravenous, read-out: absolute bioavailability) was 54%. The “Plasma drug concentration in Beagle dogs” value ([1]; intragastric 3 mg/kg, 0.25 h, individual animals 4-6, listed as DC411151) was 539 ng/mL and 93.3 ng/mL and 11.2 ng/mL, the “Plasma drug concentration in Beagle dogs” value ([1]; intragastric 3 mg/kg, 0.5 h, individual animals 4-6, listed as DC411151) was 444 ng/mL and 153 ng/mL and 188 ng/mL and the “Plasma drug concentration in Beagle dogs” value ([1]; intragastric 3 mg/kg, 1 h, individual animals 4-6, listed as DC411151) was 193 ng/mL and 318 ng/mL. For the same molecule, the “Plasma drug concentration in Beagle dogs” value ([1]; intragastric 3 mg/kg, 2 h, individual animals 4-6, listed as DC411151) was 242 ng/mL and 266 ng/mL, the “Plasma drug concentration in Beagle dogs” value ([1]; intragastric 3 mg/kg, 3 h, individual animals 4-6, listed as DC411151) was 143 ng/mL and 269 ng/mL and the “Plasma drug concentration in Beagle dogs” value ([1]; intragastric 3 mg/kg, 4 h, individual animals 4-6, listed as DC411151) was 151 ng/mL and 62.7 ng/mL and 118 ng/mL. The “Plasma drug concentration in Beagle dogs” value ([1]; intragastric 3 mg/kg, 6 h, individual animals 4-6, listed as DC411151) was 90.3 ng/mL and 24.0 ng/mL and 64.0 ng/mL, the “Plasma drug concentration in Beagle dogs” value ([1]; intragastric 3 mg/kg, 8 h, individual animals 4-6, listed as DC411151) was 12.0 ng/mL and 4.87 ng/mL and 15.6 ng/mL and the “Plasma drug concentration in Beagle dogs” value ([1]; intragastric 3 mg/kg, 24 h, individual animals 4-6) was “BQL”. The “Plasma drug concentration in Beagle dogs” value ([1]; intravenous 0.5 mg/kg, 0.083 h, individual animals 1-3, listed as DC411151, 0.5 mg/kg) was 554 ng/mL and 537 ng/mL, the “Plasma drug concentration in Beagle dogs” value ([1]; intravenous 0.5 mg/kg, 0.25 h, individual animals 1-3, listed as DC411151, 0.5 mg/kg) was 219 ng/mL and 340 ng/mL and the “Plasma drug concentration in Beagle dogs” value ([1]; intravenous 0.5 mg/kg, 0.5 h, individual animals 1-3, listed as DC411151, 0.5 mg/kg) was 138 ng/mL and 176 ng/mL. The “Plasma drug concentration in Beagle dogs” value ([1]; intravenous 0.5 mg/kg, 1 h, individual animals 1-3, listed as DC411151, 0.5 mg/kg) was 76.9 ng/mL and 97.1 ng/mL, the “Plasma drug concentration in Beagle dogs” value ([1]; intravenous 0.5 mg/kg, 2 h, individual animals 1-3, listed as DC411151, 0.5 mg/kg) was 27.8 ng/mL and 35.4 ng/mL and the “Plasma drug concentration in Beagle dogs” value ([1]; intravenous 0.5 mg/kg, 3 h, individual animals 1-3, listed as DC411151, 0.5 mg/kg) was 12.5 ng/mL and 20.3 ng/mL. For the same molecule, the “Plasma drug concentration in Beagle dogs” value ([1]; intravenous 0.5 mg/kg, 4 h, individual animals 1-3, listed as DC411151, 0.5 mg/kg) was 7.88 ng/mL and 10.6 ng/mL, the “Plasma drug concentration in Beagle dogs” value ([1]; intravenous 0.5 mg/kg, 6 h, individual animals 1-3, listed as DC411151, 0.5 mg/kg) was 1.64 ng/mL and 2.47 ng/mL and the “Plasma drug concentration in Beagle dogs” value ([1]; intravenous 0.5 mg/kg, 8 h, individual animals 1-3, listed as DC411151, 0.5 mg/kg) was “BQL and 1.05 ng/ml and 0.496 ng/ml”. The “hydroxyproline content in the liver” value ([2]; high dose (10 mg/kg), 10 mg/kg) was “significantly alleviated; also recorded: alleviating”, the “mRNA expression of liver fibrosis-related genes (Tgfb, Col1a1)” value ([2]; high dose (10 mg/kg), 10 mg/kg) was “significantly downregulated; also recorded: downregulates” and the “liver and spleen organ weights” value ([2]; oral gavage once a day, 5 weeks) was “without affecting”. For the same molecule, the “ALT levels in serum” value ([2]; oral gavage once a day, 5 weeks, 3 and 10 mg/kg groups) was “significantly reduced” and the “collagen deposition in the liver” value ([2]; pathological section analysis) was “significantly reduced”.
